The results in this text go back to patent publication US6881747B2, “Small molecules for inhibition of function and drug delivery to leukocytes” (Science & Technology Corporation @UNM, priority 2002, dated 2005).

LFA-1, sequence (P20701 26-1170): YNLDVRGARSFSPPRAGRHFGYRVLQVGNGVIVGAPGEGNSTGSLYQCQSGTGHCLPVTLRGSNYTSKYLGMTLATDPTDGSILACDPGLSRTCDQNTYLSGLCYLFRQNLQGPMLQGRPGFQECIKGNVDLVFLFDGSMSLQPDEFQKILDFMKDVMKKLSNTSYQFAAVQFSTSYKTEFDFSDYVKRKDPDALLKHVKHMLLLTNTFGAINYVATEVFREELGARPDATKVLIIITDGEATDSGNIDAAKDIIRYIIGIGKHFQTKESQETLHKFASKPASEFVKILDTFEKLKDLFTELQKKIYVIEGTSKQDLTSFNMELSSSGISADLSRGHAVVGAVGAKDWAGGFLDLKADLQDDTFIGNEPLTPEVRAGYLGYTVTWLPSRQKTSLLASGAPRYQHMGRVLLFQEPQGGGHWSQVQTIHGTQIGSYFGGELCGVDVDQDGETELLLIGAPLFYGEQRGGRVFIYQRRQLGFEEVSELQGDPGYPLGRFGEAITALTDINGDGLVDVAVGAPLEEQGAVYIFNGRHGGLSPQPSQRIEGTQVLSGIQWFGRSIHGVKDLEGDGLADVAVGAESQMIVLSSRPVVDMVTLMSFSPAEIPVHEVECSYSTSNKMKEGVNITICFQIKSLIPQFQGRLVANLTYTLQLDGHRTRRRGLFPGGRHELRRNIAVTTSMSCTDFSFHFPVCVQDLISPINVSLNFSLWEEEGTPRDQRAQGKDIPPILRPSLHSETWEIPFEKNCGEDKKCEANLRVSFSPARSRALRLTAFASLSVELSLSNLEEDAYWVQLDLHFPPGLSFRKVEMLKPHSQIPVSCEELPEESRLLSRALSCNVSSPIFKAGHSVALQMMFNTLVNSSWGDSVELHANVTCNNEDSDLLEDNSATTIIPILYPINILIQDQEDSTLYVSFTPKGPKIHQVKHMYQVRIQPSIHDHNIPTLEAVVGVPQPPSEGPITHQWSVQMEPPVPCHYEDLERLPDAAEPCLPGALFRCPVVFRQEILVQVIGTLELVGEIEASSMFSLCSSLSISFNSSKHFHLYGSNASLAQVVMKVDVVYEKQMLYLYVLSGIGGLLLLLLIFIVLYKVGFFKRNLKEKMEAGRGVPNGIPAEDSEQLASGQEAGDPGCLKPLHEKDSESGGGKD
LFA-1, sequence (P05107 23-769 partner): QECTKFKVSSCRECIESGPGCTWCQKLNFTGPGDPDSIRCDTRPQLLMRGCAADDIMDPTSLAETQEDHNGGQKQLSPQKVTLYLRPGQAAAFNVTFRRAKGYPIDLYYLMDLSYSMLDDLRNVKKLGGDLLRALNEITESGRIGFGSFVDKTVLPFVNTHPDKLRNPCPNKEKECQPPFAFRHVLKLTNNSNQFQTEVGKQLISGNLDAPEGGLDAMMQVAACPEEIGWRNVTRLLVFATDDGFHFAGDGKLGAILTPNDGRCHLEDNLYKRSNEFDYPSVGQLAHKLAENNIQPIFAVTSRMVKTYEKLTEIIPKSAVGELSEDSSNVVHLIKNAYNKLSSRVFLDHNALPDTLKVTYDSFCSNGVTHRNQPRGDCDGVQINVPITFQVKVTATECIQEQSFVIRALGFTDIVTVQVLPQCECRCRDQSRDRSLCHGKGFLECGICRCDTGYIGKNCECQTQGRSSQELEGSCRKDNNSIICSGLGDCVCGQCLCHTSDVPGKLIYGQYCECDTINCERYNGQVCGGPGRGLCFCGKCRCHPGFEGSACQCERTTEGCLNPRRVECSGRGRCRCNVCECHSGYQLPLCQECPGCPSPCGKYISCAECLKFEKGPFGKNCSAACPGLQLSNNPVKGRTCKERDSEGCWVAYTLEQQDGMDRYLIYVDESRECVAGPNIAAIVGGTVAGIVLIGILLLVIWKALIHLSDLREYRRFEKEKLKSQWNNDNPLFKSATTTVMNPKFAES

The assay concerns the target LFA-1 (Homo sapiens, UniProt P20701). Briefly: Affinity (KD) of derivatives for LFA-1. Format: binding. Conditions: affinity for LFA-1; read-out: KD (Affinity constant).
As to “5-(4-bromobenzyl)-3-(3,5-dichlorophenyl)-5-methyl-imidazolidine-2,4-dione-1-(1-butyl-4-fluoresceincarbamide) [Fluorescein- Butylamino- Nor-BIRT]”, the Kd stood at 115 nM. The same measure for `C[C@@]1(Cc2ccc(Br)cc2)C(=O)N(c2cc(Cl)cc(Cl)c2)C(=O)N1CCCCN` [Butylamino- Nor-BIRT, 1-(4-aminobutyl)-5-(4-bromobenzyl)-3-(3,5-dichlorophenyl)-5-methyl-imidazolidine-2,4-dione]: 75 nM; for `O=C1N[C@@H](Cc2ccccc2)C(=O)N1c1cc(Cl)cc(Cl)c1` [JEB I-18]: 3650 nM.

`O=C1N[C@H](Cc2ccccc2)C(=O)N1c1cc(Cl)cc(Cl)c1` [JEB I-19]: the Kd was 620 nM.

Take `CN1C(=O)N(c2cc(Cl)cc(Cl)c2)C(=O)[C@H]1Cc1ccccc1` [JEB I-22]: the Kd was determined as 1230 nM. The same measure for `CN1C(=O)N(c2cc(Cl)cc(Cl)c2)C(=O)[C@@H]1Cc1ccccc1` [JEB I-24]: 1200 nM.
